Measured values from patent publication US20240246946A1, “MODULATORS OF TREX1” (Constellation Pharmaceuticals, Inc., priority 2021, published 2024).

Key:
full length mouse TREX1 = target: T1, full length mouse TREX1 (Mus musculus, UniProt Q91XB0); test: mTREX1 Biochemical Assay (fluorescence, dsDNA substrate degradation); conditions: biochemical, read-out: mTREX1 IC50
T1 construct: N-terminally His-Tev tagged full length mouse TREX1; made in house; host or cells: E. coli
T1 sequence (Q91XB0 1-314): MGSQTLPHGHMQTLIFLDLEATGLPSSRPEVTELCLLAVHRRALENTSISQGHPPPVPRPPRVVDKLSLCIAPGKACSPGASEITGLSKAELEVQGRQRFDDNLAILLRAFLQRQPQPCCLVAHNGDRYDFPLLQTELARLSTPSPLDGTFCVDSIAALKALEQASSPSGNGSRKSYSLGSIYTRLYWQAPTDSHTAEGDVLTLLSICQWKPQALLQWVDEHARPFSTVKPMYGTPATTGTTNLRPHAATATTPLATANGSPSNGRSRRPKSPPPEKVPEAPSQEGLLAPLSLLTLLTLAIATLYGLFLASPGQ
Outline: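 Reaction run 18 h at 25° C. with 60 nM TEX615/quencher-labelled dsDNA and 6 pM mouse TREX1 in Tris buffer (pH 7.4, 5 mM MgCl2, 1.0% DMSO), enzyme having sat 4 h with compound across 10 concentrations. EDTA quench; substrate degradation measured as fluorescence increase.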

[1] = target: T2, human TREX2 (residues M44-A279) (Homo sapiens, UniProt Q9BQ50); test: hTREX2 Biochemical Assay (fluorescence, dsDNA substrate degradation); conditions: biochemical selectivity for hTREX1 vs hTREX2
T2 construct: human TREX2 (residues M44-A279, expressed in E. coli); made in house; host or cells: E. coli
T2 sequence (Q9BQ50 44-279 isoform Q9BQ50-1): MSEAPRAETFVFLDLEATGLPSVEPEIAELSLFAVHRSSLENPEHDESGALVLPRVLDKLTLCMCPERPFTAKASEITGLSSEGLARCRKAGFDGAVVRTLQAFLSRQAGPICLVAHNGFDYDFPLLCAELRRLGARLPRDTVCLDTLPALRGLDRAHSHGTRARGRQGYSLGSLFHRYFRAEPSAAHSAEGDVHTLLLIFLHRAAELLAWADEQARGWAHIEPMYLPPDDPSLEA
Outline: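 Fluorogenic dsDNA degradation read at 615 nm (570 nm excitation) after EDTA quench. Final 60 nM substrate, 50 pM His-Tev-tagged enzyme, 5 mM MgCl2, pH 7.4, 1.0% DMSO; 4 h compound–enzyme preincubation then 18 h reaction, both 25 °C; 10-point titration.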

hTREX1 = target: T3, hTREX1 (Homo sapiens, UniProt Q9NSU2); test: hTREX1 HCT116 Cell Assay (HCT116 dual cells, Lucia luciferase reporter of Type I interferon induction); assay type: cell-based; conditions: TREX1i 4 h before pBR322/BstNI transfection, read after 48 h
T3 construct: host or cells: HCT116 dual cells
T3 sequence (Q9NSU2 1-314): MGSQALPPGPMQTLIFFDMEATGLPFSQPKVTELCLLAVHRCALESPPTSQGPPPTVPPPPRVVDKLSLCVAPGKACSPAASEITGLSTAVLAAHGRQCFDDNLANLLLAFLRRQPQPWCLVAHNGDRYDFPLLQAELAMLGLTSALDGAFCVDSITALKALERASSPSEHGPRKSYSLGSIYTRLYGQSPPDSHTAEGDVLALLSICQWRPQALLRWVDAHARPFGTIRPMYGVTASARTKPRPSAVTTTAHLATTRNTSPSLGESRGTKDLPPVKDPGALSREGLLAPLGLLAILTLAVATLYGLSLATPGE
Outline: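 Type I interferon induction read as secreted Lucia luciferase 48 h after transfecting pBR322/BstNI digest (1 ug/mL, 100 ng/well) into HCT116 dual reporter cells. Compound added 4 h before transfection at up to 0.1% DMSO; cells in DMEM/10% FBS/25 mM HEPES at 37 °C.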

full length human TREX1 = target: T4, full length human TREX1 (Homo sapiens, UniProt Q9NSU2); test: hTREX1 Biochemical Assay (fluorescence, dsDNA substrate degradation); conditions: biochemical, read-out: hTREX1 IC50
T4 construct: N-terminally His-Tev tagged full length human TREX1; made in house; host or cells: E. coli
T4 sequence (Q9NSU2 1-314): T3 sequence (Q9NSU2 1-314)
Outline: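 Fluorescence rises as enzyme degrades a quenched TEX615-labelled dsDNA substrate (60 nM) in 50 mM Tris, 150 mM NaCl, 5 mM MgCl2, pH 7.4. Full-length His-Tev-tagged human TREX1, 4 pM, sits with compound 4 hours at 25° C before substrate; reaction 18 hours, stopped with EDTA.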

Row | IC50 (full length mouse TREX1) [nM] | hTREX1 vs hTREX2 selectivity [1] | IC50 (hTREX1) [nM] | IC50 (full length human TREX1) [nM] | SMILES
1 | 1 to 10 | C (C = >50 fold selective for hTREX1) | 10 to 100 | < 1 | CC(c1nc(C(=O)Nc2cnoc2)c(O)c(=O)n1C)C(c1cnn(CCN2CCN(C(=O)OC(C)(C)C)CC2)c1)c1ccccc1C#N (single isomer, unassigned) [Example 21 D1E1]
2 | 1 to 10 | A (A = <25 fold selective for hTREX1) | > 100 | 1 to 10 | CC(c1nc(C(=O)Nc2cnoc2)c(O)c(=O)n1C)C(c1cnn(CC(C)(C)O)c1)c1cc(F)ccc1Cl (single isomer, unassigned) [Example 92 D1E1]
3 | 1 to 10 | C (C = >50 fold selective for hTREX1) | 10 to 100 | < 1 | COCCn1cc(C(c2ccccc2C#N)C(C)c2nc(C(=O)Nc3cnoc3)c(O)c(=O)n2C)cn1 (single isomer, unassigned) [Example 9 D1E1]
4 | > 10 | A (A = <25 fold selective for hTREX1) | > 100 | 1 to 10 | Cc1cnc(C(c2ccccc2Cl)C(C)c2nc(C(=O)Nc3cnoc3)c(O)c(=O)n2C)cn1 (single isomer, unassigned) [Example 116 D2E1]
5 | < 1 | C (C = >50 fold selective for hTREX1) | < 10 | < 1 | Cc1cc(C(c2ccccc2C#N)C(C)c2nc(C(=O)Nc3cnoc3)c(O)c(=O)n2C)ccn1 (single isomer, unassigned) [Example 6 D1E1]
6 | > 10 | A (A = <25 fold selective for hTREX1) | > 100 | 1 to 10 | CC(c1nc(C(=O)Nc2cnoc2)c(O)c(=O)n1C)C(c1cnn(C(C)C)c1)c1ccccc1C#N (single isomer, unassigned) [Example 105 D2E1]

More lines, now with the values behind:

Row | SMILES | IC50 (full length mouse TREX1) [nM] | hTREX1 vs hTREX2 selectivity [1] | IC50 (hTREX1) [nM] | IC50 (full length human TREX1) [nM]
7 | CC(c1nc(C(=O)Nc2cnoc2)c(O)c(=O)n1C)C(c1cnn(C)c1)c1cc(C(F)(F)F)ccc1C#N (single isomer, unassigned) [Example 29 D1E1] | 1 to 10 | C (C = >50 fold selective for hTREX1) | < 10 | < 1
8 | Cc1ncc(C(c2ccccc2C#N)C(C)c2nc(C(=O)Nc3cnoc3)c(O)c(=O)n2C)nc1C (single isomer, unassigned) [Example 81 D2E1] | > 10 | B (B = 25 to 50-fold selective for hTREX1) | > 100 | 1 to 10
9 | Cc1nnc(C(c2ccccc2Cl)C(C)c2nc(C(=O)Nc3cnoc3)c(O)c(=O)n2C)o1 (single isomer, unassigned) [Example 156 D1E1] | > 10 | A (A = <25 fold selective for hTREX1) | > 100 | > 10
10 | COCCn1cc(C(c2cc(F)ccc2C#N)C(C)c2nc(C(=O)Nc3cnoc3)c(O)c(=O)n2C)c(C)n1 (single isomer, unassigned) [Example 103 D1E2] | < 1 | C (C = >50 fold selective for hTREX1) | 10 to 100 | < 1
11 | Cc1cnc(C)c(C(c2cc(F)ccc2Cl)C(C)c2nc(C(=O)Nc3cnoc3)c(O)c(=O)n2C)n1 (single isomer, unassigned) [Example 121 D1E1] | 1 to 10 | C (C = >50 fold selective for hTREX1) | < 10 | < 1
12 | CC(c1nc(C(=O)Nc2cnoc2)c(O)c(=O)n1C)C(c1ccccc1C#N)c1cn(C)nc1C#N (single isomer, unassigned) [Example 10 D2E1] | 1 to 10 | C (C = >50 fold selective for hTREX1) | < 10 | < 1
13 | Cn1cc(C(c2ccccc2C#N)C(c2nc(C(=O)Nc3cnoc3)c(O)c(=O)n2C)C(F)(F)F)cn1 (single isomer, unassigned) [Example 40 D1E2] | 1 to 10 | B (B = 25 to 50-fold selective for hTREX1) | > 100 | < 1
